# Data from patent EP0701561B1, “DESOXYAZAPHOSPHOLIPID DERIVATIVES HAVING INHIBITING ACTIVITY ON PHOSPHOLIPASE A2” (LABORATORIOS MENARINI S.A., priority 1993, dated 1994).
# Test system: carrageenin plantar oedema
# Assay: Antiinflammatory activity, inhibition of the carrageenin plantar oedema in the rat
# Assay type: in vivo, male Sprague-Dawley rats
# Conditions: intravenously, dose 2.5 mg/Kg, paw volume 3 hours after carrageenin
# Description: The antiinflammatory action of the compounds of the present invention is determined by a standard test based on the procedure by Winter C.A. et al. (Proc. Soc. Exp. Biol. Med., 111, 544 (1962)). In this test, male Sprague-Dawley rats of 90-110 g are used, which are randomized in groups of 5 animals. The compound under test is administered intravenously in the tail lateral vein. The compound is suspended in Tween 20 (2-3% final concentration) and physiological serum is added to obtain a solution of the desired concentration of the compound, the administered volume being 2.5 ml/kg. Immediately after the injection of the compound, a subplantar injection of 0.1 ml of 1% carrageenin in physiological serum is performed in the right paw of the rat. In each test, a control group is systematically used, which is administered with the vehicle only. The paw inflammation is evaluated by measuring its volume with a water plethysmograph 1, 3 and 6 hours after inducing the inflammation. The determination of the inhibition percentage of the inflammation is calculated by the following formula: % Inhibition = (1 - A/B) x 100 [formula] wherein A is the average of the swelling volume in the group of treated animals and B is the average of the swelling volume in the control group.
# For comparison purposes, the inhibition values of indomethacin and ketoprofen are also included as reference. The inhibition value found for Compound A, a structural analogous of the compounds described in the present patent, is also shown.
row,Compound,% Inhibition (3 hours)
1,"CCCCCCCCCCS(=O)(=O)NC(CCCCCC)COP(=O)(O)OCCOCc1ccccc1 (stereo not shown) [Compound 26, 2-Decanesulfonylaminooctanol-1-phospho-2-benzyloxyethanol]",26%

# Same assay, conditions: intravenously, dose 5 mg/Kg, paw volume 3 hours after carrageenin
row,Compound,% Inhibition (3 hours)
1,"CCCCCCCCCCCC(=O)NC(CCCCCC)COP(=O)(O)CCCC (stereo not shown) [Compound 39, 2-Dodecanoylaminooctyl butylphosphonate]",17%
2,(R)-2-Decanesulfonylaminohexanol-1-phospho-2-benzyloxyethanol [Compound 29],27%
3,(S)-2-Decanesulfonylaminohexanol-1-phospho-2-benzyloxyethanol [Compound 30],12%
4,"CCCCCCCCCCS(=O)(=O)NC(CCCCCC)COP(=O)(O)CCCCc1ccccc1 (stereo not shown) [Compound 38, 2-Decanesulfonaminooctyl (4-phenylbutyl)phosphonate]",23%
5,"COc1ccc2c(c1)c(CC(=O)O)c(C)n2C(=O)c1ccc(Cl)cc1 [Indomethacin, indomethacin, reference compound]",37%
6,"CCCCCCCCCCS(=O)(=O)NC(CCCCCC)COP(=O)(O)OCCOCc1ccccc1 (stereo not shown) [Compound 26, 2-Decanesulfonylaminooctanol-1-phospho-2-benzyloxyethanol]",37%
7,"CCCCCCC(COP(=O)(O)OCCOCc1ccccc1)NS(=O)(=O)CCCc1ccccc1 (stereo not shown) [Compound 32, 2-(3-Phenylpropanesulfonylamino)octanol-1-phospho-2-benzyloxyethanol]",35%
8,"CCCCCCCCCCS(=O)(=O)N[C@@H](CCCCCC)COP(=O)(O)OCCOCc1ccccc1 [Compound 28, (S)-2-Decanesulfonylaminooctanol-1-phospho-2-benzyloxyethanol]",19%
9,"CCCCCCCCCCS(=O)(=O)N[C@H](CCCCCC)COP(=O)(O)OCCOCc1ccccc1 [Compound 27, (R)-2-Decanesulfonylaminooctanol-1-phospho-2-benzyloxyethanol]",36%
10,"CC(C(=O)O)c1cccc(C(=O)c2ccccc2)c1 (stereo not shown) [Ketoprofen, ketoprofen, reference compound]",37%

# Same assay, conditions: intravenously, dose 10 mg/Kg, paw volume 3 hours after carrageenin
row,Compound,% Inhibition (3 hours)
1,"CCCCCCCCCCCC(=O)NC(CCCCCC)COP(=O)(O)OCCOCc1ccccc1 (stereo not shown) [Compound A, 2-dodecanoylaminooctanol-1-phospho-2-benzyloxyethanol, reference compound]",14%
2,"CCCCCCCCCCS(=O)(=O)NC(CCCCCC)COP(=O)(O)OCCOCc1ccccc1 (stereo not shown) [Compound 26, 2-Decanesulfonylaminooctanol-1-phospho-2-benzyloxyethanol]",41%
